Earlier results, collected in US20250017941A1, “METHODS OF TREATING NON-HODGKIN LYMPHOMA USING 2-(2,6-DIOXOPIPERIDIN-3-YL)-4-((2-FLUORO-4-((3-MORPHOLINOAZETIDIN-1-YL)METHYL)BENZYL)AMINO)ISOINDOLINE-1,3-DIONE” (Celgene Corporation, priority 2021, published 2025).
Where two headings read alike, the source gives them in different places. Blank lines part the entries; values can stand above or below the molecule they belong to.

Legend:
[1] = system: adult patients with CD20-positive indolent non-Hodgkin lymphoma refractory to rituximab
[2] = system: patients with R/R DLBCL
[3] = system: patients with FL who had received 2 or more prior systemic therapies
[4] = tafasitamab in combination with lenalidomide, R/R DLBCL
[5] = tafasitamab in combination with lenalidomide, listed with the G3/4 events
[6] = 53 patients with EZH2 wild-type status, 800 mg orally twice daily

Molecule: Cn1c(CCCC(=O)O)nc2cc(N(CCCl)CCCl)ccc21 [bendamustine]
PFS (primary endpoint) ([1]; median follow-up 21.9 months (obinutuzumab plus bendamustine) and 20.3 months (bendamustine monotherapy)): 14.9 months | Febrile neutropenia, occurrence ([1]; per arm): uncommon | Grade 3/4 anemia, patients ([1]; per arm): 8% | Grade 3/4 neutropenia, patients ([1]; per arm): 26% | Grade 3/4 thrombocytopenia, patients ([1]; per arm): 15% | Serious AEs, patients ([1]; per treatment group): 33% | deaths due to adverse events, patients ([1]; per treatment group): 6%

Molecule: tafasitamab: anti-CD19 monoclonal antibody; results are for the combination with lenalidomide
objective response rate (ORR) ([2]; tafasitamab 12 mg/kg intravenously in combination with lenalidomide 25 mg orally, R/R DLBCL, 81 participants): 60% | complete response (CR) rate ([2]; tafasitamab 12 mg/kg intravenously in combination with lenalidomide, R/R DLBCL, 81 participants): 34% | G3/4 febrile neutropenia, patients [2, 4]: 12% | G3/4 neutropenia, patients [2, 4]: 48% | Serious AEs, patients [2, 4]: 52% | Serious AEs: febrile neutropenia, patients [2, 4]: 6% | Serious AEs: pneumonia, patients [2, 4]: 6% | median duration of response [2, 4]: 21.7 months | anemia, patients [2, 5]: 7% | thrombocytopenia, patients [2, 5]: 17% | most common adverse events (AEs) of all grades, frequency ([2]; tafasitamab in combination with lenalidomide, neutropenia, fatigue, anemia, diarrhea, thrombocytopenia, cough, pyrexia, peripheral edema, rash, decreased appetite): ≥ 20%

Grade 3/4 anemia, patients ([3]; 800 mg orally twice daily): 8% | Grade 3/4 neutropenia, patients ([3]; 800 mg orally twice daily): 7% | Grade 3/4 thrombocytopenia, patients ([3]; 800 mg orally twice daily): 7%
Molecule: CCN(c1cc(-c2ccc(CN3CCOCC3)cc2)cc(C(=O)NCc2c(C)cc(C)[nH]c2=O)c1C)C1CCOCC1 [Tazemetostat, N-[(1,2-dihydro-4,6-dimethyl-2-oxo-3-pyridinyl)methyl]-5-[ethyl (tetrahydro-2H-pyran-4-yl)amino]-4-methyl-4′-(4-morpholinylmethyl)-[1,1′-biphenyl]-3-carboxamide]
Serious AEs, patients ([3]; 800 mg orally twice daily): 30% | CR rate ([3]; 42 patients with EZH2 mutated status, 800 mg orally twice daily): 12% | ORR ([3]; 42 patients with EZH2 mutated status, tazemetostat 800 mg orally twice daily): 69% | CR rate [3, 6]: 4% | ORR [3, 6]: 34% | mDOR ([3]; EZH2 wild-type cohort, 800 mg orally twice daily): 13 months | most common AEs of all grades, frequency ([3]; fatigue, upper respiratory tract infection, nausea, abdominal pain and musculoskeletal pain): ≥ 20% | most common serious AEs, patients ([3]; general physical health deterioration, abdominal pain, pneumonia, sepsis and anemia): at least 2% | mDOR ([3]; patients with EZH2 mutated status, 800 mg orally twice daily): 10.9 months
